Laboratory results: patent publication US20230057071A1 (NOVARTIS AG, priority 2019, published 2023)

Experiments:
[1] = tested on: AML PDX model HAMLX21432 (IDH1R132H); assay type: in vivo
Method: MBG453 was administered i.p. at 10 mg/kg, once weekly (starting at day 6 of dosing) either as a single agent or in combination with decitabine i.p. at 1 mg/kg, once daily for a total of 5 doses (from initiation of dosing). Initial group size: 4 animals. […] All final data were recorded on day 56. Leukemic burden was measured as a percentage of human CD45+ cells in peripheral blood by FACS analysis.
(§1) The activity of MBG453 with and without decitabine was evaluated in two AML patient-derived xenograft (PDX) models, HAMLX21432 and HAMLX5343. Decitabine (TCI America) was formulated in dextrose 5% in water (D5W) freshly prior to each dose and administered daily for 5 days. It was administered at 10 mL/kg intraperitoneal (i.p.), for a final dose […]. MBG453 was formulated to a final concentration of 1 mg/mL in PBS. It was administered weekly at a volume of 10 mL/kg, i.p., for a final dose of 10 mg/kg, with treatment initiating on dosing day 6, 24 hours after the final dose of decitabine.
Treatments were initiated on the day of randomization and continued for 21 days.

[2] = tested on: AML PDX model HAMLX5343 (KRASG12D, WT1, PTPN11); assay type: in vivo
Method: Initial group size: 4 animals. […] All final data were recorded on day 56.
as §1

[3] = cited from earlier work
[4] = biological target: T1, TIM-3/Galectin-9 interaction (Homo sapiens, UniProt Q8TDQ0); experiment: Plate-based (MesoScale) competition assay of the TIM-3/Galectin-9 interaction; assay type: binding; conditions: serial dilutions of antibody; labeled Galectin-9 100 nM
T1 construct: purchased R&D Systems
Method: FIG. 1 is a graph depicting the impact of MBG453 on the interaction between TIM3 and galectin-9. Competition was assessed as a measure of the ability of the antibody to block Gal9-SULFOTag signal to TIM-3 receptor, which is shown on the Y-axis. Concentration of the antibody is shown on the X-axis.
TIM-3 fusion protein (R&D Systems) was coated on a standard MesoScale 96 well plate (Meso Scale Discovery) at 2 μg/ml in PBS (Phosphate Buffered Saline) and incubated for six hours at room temperature. The plate was washed three times with PBST (PBS buffer containing 0.05% Tween-20) and blocked with PBS containing 5% Probumin (Millipore) overnight at 4° C. After incubation, the plate was washed three times with PBST and unlabeled antibody (F38-2E2 (BioLegend); MBG453; MBG453 F(ab′)2; MBG453 F(ab); or control recombinant human Galectin-9 protein) diluted in Assay Diluent (2% Probumin, 0.1% Tween-20, 0.1% Triton X-100 (Sigma) with 10% StabilGuard (SurModics)), was added in serial dilutions to the plate and incubated for one hour on an orbital shaker at room temperature. […] The plate was again washed three times with PBST, and Read Buffer T (1×) was added to the plate. The plate was read on MA600 Imager, and competition was assessed as a measure of the ability of the antibody to block Gal9-SULFOTag signal to TIM-3 receptor.

[5] = tested on: THP-1 cells engineered to overexpress TIM-3; experiment: T cell-mediated killing of TIM-3-overexpressing versus parental THP-1 cells (co-culture, flow cytometry); assay type: cell-based, human; conditions: 25 μg/ml; 3 days co-culture; anti-CD3/anti-CD28 beads
Method: The ratio between TIM-3-expressing THP-1 cells and parental THP-1 cells (“fold” in y-axis of graph) was calculated and normalized to conditions without anti-CD3/anti-CD28 bead stimulation. The x-axis of the graph denotes the stimulation amount as number of beads per cell. Data represents one of two independent experiments.
THP-1 cells express TIM-3 mRNA but low to no TIM-3 protein on the cell surface. […] TIM-3 Flag-tagged THP-1 cells were labeled with 2 μM CFSE (Thermo Fisher Scientific), and THP-1 parental cells were labeled with 2 μM CTV (Thermo Fisher Scientific), according to manufacturer instructions. Co-culture assays were performed in 96-well round-bottom plates. […] Cells were then detected and counted by flow cytometry. The ratio between TIM-3-expressing THP-1 cells and parental THP-1 cells (“fold” in y-axis of graph) was calculated and normalized to conditions without anti-CD3/anti-CD28 bead stimulation. […]

[6] = tested on: rodent and cynomolgus monkey TGF-β; experiment: Species cross-reactivity of NIS793; assay type: binding
IL-1 signaling = conditions: mouse model of disease; cited from earlier work
[7] = single agent, 1 mg/kg i.p. daily x5

With `Nc1ncn([C@H]2C[C@H](O)[C@@H](CO)O2)c(=O)n1` [decitabine, 4-amino-1-(2-deoxy-beta-D-erythro-pentofuranosyl)-1,3,5-triazin-2(1H)-one] as the compound, how does the “leukemic burden, hCD45+ cells in circulation” value ([1]; day 56 post-implantation) read?
Its value is 66%.

What about the “leukemic burden, hCD45+ cells in peripheral blood” value ([1]; group average, day 49 post-implant or day 14 post-treatment start, decitabine 1 mg/kg i.p. daily x5, MBG453 10 mg/kg i.p. weekly) of the same compound?
Its value is 51%.

And the anti-tumor activity [1, 7]?
The anti-tumor activity was “moderate anti-tumor activity”.

And the “leukemic burden, hCD45+ cells” value ([2]; group average, day 53 post-implant or day 21 post-treatment start)?
The value was 1%.

What about the anti-tumor activity [2, 7] of the same compound?
Its anti-tumor activity is “significant anti-tumor activity”.

What about the response ([3]; 21 patients with myelofibrosis) of the same compound?
The response was 7 of 19.

What about the “Grade 3/4 neutropenia” value ([3]; myelofibrosis cohort) of the same compound?
Its value is 95 % of patients.

And the “Grade 3/4 thrombocytopenia” value ([3]; myelofibrosis cohort)?
The value was 52 % of patients.

For MBG453 F(ab): F(ab) fragment of MBG453, which “block of the interaction between TIM-3 and Galectin-9 (Gal9-SULFOTag signal to TIM-3)” value [4] is on record?
The value was “partially blocked”.

What about the “T cell-mediated killing of TIM-3-overexpressing THP-1 cells relative to parental THP-1 cells” value [5] of the same compound?
The value was “not”.

Which “block of the interaction between TIM-3 and Galectin-9 (Gal9-SULFOTag signal to TIM-3)” value [4] does the source give for “MBG453 F(ab′)2: F(ab′)2 fragment of MBG453” here?
The value was “partially blocked”.

With “NIS793: fully human IgG2 monoclonal antibody that specifically binds and neutralizes TGF-beta 1 and 2 ligands” as the compound, how does the “cross-reactivity with rodent and cynomolgus monkey TGF-β” value [6] read?
The value was “cross-reacts”.

With “anakinra: recombinant IL-1 receptor antagonist (IL-1Ra)” as the compound, how does the “BM MSC frequency” value (IL-1 signaling) read?
The value was “increased”.

What about the platelet counts (IL-1 signaling) of the same compound?
Its platelet counts is “reduced”.
